In experiment [1] the target is T1, adenine binding rat receptor (Rattus norvegicus, UniProt Q7TN49).
T1 construct: expressed in transfected cells; host or cells: CHO cells, transient, lipofectamine PLUS
T1 sequence (Q7TN49 1-304): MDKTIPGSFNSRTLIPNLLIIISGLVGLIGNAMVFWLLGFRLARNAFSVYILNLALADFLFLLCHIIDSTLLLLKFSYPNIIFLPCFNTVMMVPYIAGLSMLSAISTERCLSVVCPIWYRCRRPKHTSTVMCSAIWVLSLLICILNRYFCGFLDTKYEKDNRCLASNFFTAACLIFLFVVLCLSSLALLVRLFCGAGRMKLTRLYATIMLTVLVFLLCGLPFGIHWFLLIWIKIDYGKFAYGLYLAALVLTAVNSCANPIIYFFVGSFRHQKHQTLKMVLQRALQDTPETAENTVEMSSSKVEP
Nature of the experiment: [35S]GTPγS binding on CHO membranes transiently transfected. In kind it is biochemical. The following applies: transiently transfected cells; for % stim.: increase above basal; for EC50: read-out: pEC50 (converted). Here is the method:
a) Methods—Determination of [^35S ]GTPγS binding to the G-proteins was carried out according to a modified procedure of Lazareno (Methods Mol. Biol., 83:107-116, 1997). These experiments were performed for a first functional evaluation of the receptor on the level of a membrane preparation.
The assay mixture contained 10 and 35 μg of membrane protein for the transfected and wild type CHO cells, respectively.
For testing agonistic activity, 175 μl of diluted membranes was pre-incubated in the buffer described above together with 25 μl of buffer and 25 μl of varying concentrations of the compound in a total volume of 225 μl. After a 20 minute pre-incubation period at 30° C., 25 μl of [^35S]GTPγS was added to a final concentration of 0.25 nM and the assay mixtures were further incubated for 20 minutes at 30° C. Bound and free [^35S]GTPγS were separated by rapid filtration over an UniFilter™-96, GF/B™ under reduced pressure using Filtermate 196 filtration (Packard Company (Netherlands). The amount of bound radioactivity on the filter unit was determined after drying of the filters and scintillant addition (Microscint-O; Packard Company) by liquid scintillation counting.
Basal [^35S]GTPγS binding was measured in absence of compounds. Stimulation by agonist was calculated as the percentage increase above basal levels. The sigmoid agonist concentration-response curves were analyzed by non-linear regression using the GraphPad Prism program. The different concentration points were run in duplicates and the reported data were retrieved from independent experiments.
On the technique in general: GTPγS resists hydrolysis and so accumulates on activated G proteins.

The test system of the next experiment is wild type CHO cells. The experiment in a line: [3H]adenine competition binding on wild type CHO membranes. The settings on record: 15 nM [3H]adenine. Here is the method:
The membranes were prepared as total particulate fractions. […] The culturing medium was removed and the cells were washed twice with ice cold phosphate buffered saline (PBS without Ca^2+ and Mg^2+), scraped from the plates in 50 mM Tris-HCl buffer, pH 7.4, and collected by centrifugation (10 minutes at 16,000 RPM at 4° C.). The cell pellet was re-suspended in hypotonic 5 mM Tris-HCl buffer, pH 7.4, and homogenized with an Ultra Turrax homogenizer (Janker Kunkel, Germany). The homogenate was centrifuged at 18,000 RPM for 20 minutes at 4° C. The final pellet was re-suspended in 50 mM Tris-HCl buffer, pH 7.4 and stored in aliquots at −70° C. A protein determination was performed using the Bradford protein assay (Biorad, Germany) using bovine serum albumin (BSA) as standard.
(§1) Membranes were thawed on ice and diluted in 50 mM HEPES buffer, pH 7.4 supplemented with 10 mM MgCl2 and 1 mM EGTA. […] Both assays were carried out in a final volume of 500 μl, using 18 μg of membrane protein for the transfected CHO cells and 30 μg of membrane protein for the wild type CHO cells for the saturation binding. For competition binding experiments, 15 and 50 μg of membrane protein was used for the transfected and wild type cells, respectively. The reaction was terminated by rapid filtration through Whatman GF/B filters using a Brandel multi-channel cell harvester (96 wells). The filters were washed three times with 3 ml ice cold 50 mM HEPES buffer, pH 7.4, transferred to liquid scintillation vials and 3 ml of scintillation fluid (Ultima Gold MV, Packard, Netherlands) was added. Samples were counted in a β-scintillation counter after at least 6 hours to permit the glass fiber filters to become uniformly translucent.

For experiment [2], the target named is T1, adenine binding rat receptor. Nature of the experiment: [3H]adenine competition binding on CHO membranes transiently transfected. The following applies: transfected cells, 15 nM [3H]adenine. Here is the method:
The membranes were prepared as total particulate fractions. The cell lines were cultured to […] on 145 mm petri dishes and treated with 5 mM sodium butyrate, 24 hours before collection. The culturing medium was removed and the cells were washed twice with ice cold phosphate buffered saline (PBS without Ca^2+ and Mg^2+), scraped from the plates in 50 mM Tris-HCl buffer, pH 7.4, and collected by centrifugation (10 minutes at 16,000 RPM at 4° C.). The cell pellet was re-suspended in hypotonic 5 mM Tris-HCl buffer, pH 7.4, and homogenized with an Ultra Turrax homogenizer (Janker Kunkel, Germany). The homogenate was centrifuged at 18,000 RPM for 20 minutes at 4° C. The final pellet was re-suspended in 50 mM Tris-HCl buffer, pH 7.4 and stored in aliquots at −70° C. A protein determination was performed using the Bradford protein assay (Biorad, Germany) using bovine serum albumin (BSA) as standard.
as §1, with “A) Methods—[3H]Adenine binding experiments were performed to characterize wild type cell lines before transfection as well as transiently and permanently transfected cell lines. Membranes” for “Membranes”

In another experiment the target is T2, rat adenine binding GPCR (Rattus norvegicus, UniProt Q7TN49).
T2 sequence (Q7TN49 1-304): T1 sequence (Q7TN49 1-304)
Nature of the experiment: FLIPR Ca2+ transient assay, agonism, HEK293/Gq chimera cells transiently transfected with rat adenine binding GPCR/pcDNA3. In kind it is cell-based. Also on record: The full length reading frame was inserted into the mammalian expression vector pcDNA3; expressed in transfected cells; host or cells: HEK293 cells stably transfected with pLEC/Gqi or pLEC/Gqo. The following applies: for agonistic effects on Ca2+ transients: concentrations ranging from 30 μM to 30 pM; for calcium transients elicited: HEK293/Gaqo cells, 3.3 μM. The text has this: This assay is based around an instrument called a FLuorescence Imaging Plate Reader ((FLIPR®), Molecular Devices Corporation). In its most common configuration, it excites and measures fluorescence emitted by fluorescein-based dyes. It uses an argon-ion laser to produce high power excitation at 488 nm of a fluorophore, a system of optics to rapidly scan the over the bottom of a 96-/384-well plate and a sensitive, cooled CCD camera to capture the emitted fluorescence. It also contains a 96-/384-well pipetting head allowing the instrument to deliver solutions of test agents into the wells of a 96-/384-well plate. The FLIPR assay is designed to measure fluorescence signals from populations of cells before, during and after addition of compounds, in real time, from all 96-/384-wells simultaneously. […] As described below, calcium transients in cells transfected with adenine binding GPCR were measured using the FLIPR assay in order to measure activation of the receptors by various substrates in order to determine the natural ligand of the receptor.
The full length reading frame was inserted into the mammalian expression vector pcDNA3 (Invitrogen, Carlsbad, Calif., U.S.A.) and the resulting expression construct was transiently transfected with the FuGENE 6 reagent (Roche Molecular Biochemicals, Mannheim, Germany) into HEK293 cells stably transfected (E. Bender, unpublished) with pLEC/Gqi or pLEC/Gqo (Molecular Devices, Sunnyvale, Calif., U.S.A.). The cells were loaded with Fluo-4 (Molecular Probes, Eugene, Oreg., U.S.A.) according to the recommendations of the supplier. […]
Using the FLIPR assay as above, calcium transients were measured in both sets of cells with the transients attributable to the novel GPCR measured as the difference between the two transients. Results are illustrated in FIG. 4. […]

For the next experiment, the target named is T3, adenine binding GPCR (Rattus norvegicus, UniProt Q7TN49).
T3 construct: The full length reading frame was inserted into the mammalian expression vector pcDNA3; expressed in transfected cells; host or cells: HEK293 cells stably transfected with pLEC/Gqi or pLEC/Gqo
T3 sequence (Q7TN49 1-304): T1 sequence (Q7TN49 1-304)
The experiment in a line: FLIPR Ca2+ transient assay, antagonism of 30 nM adenine challenge. The experiment is classed as cell-based. The following applies: 15 minutes incubation with compound (30 μM to 30 pM), then challenge with 30 nM adenine. From the text:
The full length reading frame was inserted into the mammalian expression vector pcDNA3 (Invitrogen, Carlsbad, Calif., U.S.A.) and the resulting expression construct was transiently transfected with the FuGENE 6 reagent (Roche Molecular Biochemicals, Mannheim, Germany) into HEK293 cells stably transfected (E. Bender, unpublished) with pLEC/Gqi or pLEC/Gqo (Molecular Devices, Sunnyvale, Calif., U.S.A.). The cells were loaded with Fluo-4 (Molecular Probes, Eugene, Oreg., U.S.A.) according to the recommendations of the supplier.
After a 15 minutes incubation at room temperature, the same cells were challenged with 30 nM adenine, to detect antagonistic properties of molecules added in the first round of superfusion.

“And” between values parts separate entries of the source, which are not always exact repeats. Equal values may be shown once. Read-outs that look alike come from different tables or passages of the source. Some results are limits rather than exact numbers.

As a reminder, the pIC50 is the IC50 on a negative log10 scale, so that one unit is a factor of ten. Broadly, the IC50 is the concentration at which inhibition is half-maximal. Read a high IC50 as lower potency. Broadly, the Ki is the dissociation constant of the complex between target and ligand, obtained from inhibition or displacement. Read a high Ki as lower affinity. As to `c1ccc(CNc2ncnc3nc[nH]c23)cc1` [6-Benzylaminopurine], the “stimulation normalized to maximum adenine response” value in experiment [1] (adenine stimulation of same experiment = 100%) is given as “(11% ref)”. In addition, the “% stim.” value in experiment [1] (mean of n experiments) and in experiment [1] (single experiments) was 12% each time. The EC50 in experiment [1] (mean of n experiments) and in experiment [1] (single experiments) was above 100 µM throughout. Besides, the negative-log IC50 (pIC50) in the experiment with wild type CHO cells (mean of n experiments) and in the experiment with wild type CHO cells (single experiments) was below 4 each time. Further, the IC50 was 93.3 µM in experiment [2] (mean of n experiments) and 87.1 µM in experiment [2] (single experiments). Further, the inhibitory constant (Ki) in experiment [2] (mean of n experiments) is 58.3 µM; in experiment [2] (single experiments), 61.4 µM and 54.1 µM.

`Nc1ncnc2c1ncn2[C@@H]1O[C@H](COP(=O)(O)OP(=O)(O)O)[C@@H](O)[C@H]1O` [ADP]: the negative-log IC50 (pIC50) (with wild type CHO cells (mean of n experiments); with wild type CHO cells (single experiments); in experiment [2] (mean of n experiments); in experiment [2] (single experiments)) was below 4 each time. At rat adenine binding GPCR, the “agonistic effects on Ca2+ transients” value is given as “No further agonistic effects”. Moreover, on adenine binding GPCR, the antagonistic effect entry is recorded as “did not elicit antagonistic effects”.

For `COc1cccc2c1C(=O)c1c(O)c3c(c(O)c1C2=O)C[C@@](O)(C(=O)CO)C[C@@H]3O[C@H]1C[C@H](N)[C@H](O)[C@H](C)O1` [Adrianamycin], the pIC50 with wild type CHO cells (mean of n experiments) is below 4; in the experiment on wild type CHO cells (single experiments), below 4; in experiment [2] (mean of n experiments), 4.35; in experiment [2] (single experiments), 4.35. In addition, the inhibition constant Ki was 27.9 µM in experiment [2] (mean of n experiments) and 27.8 µM in experiment [2] (single experiments).

On to `COc1cccc2c1C(=O)c1c(O)c3c(c(O)c1C2=O)C[C@@](O)(C(C)=O)C[C@@H]3O[C@H]1C[C@H](N)[C@H](O)[C@H](C)O1` [Daunomycin], for which the pIC50 in the experiment with wild type CHO cells (mean of n experiments) and in the experiment on wild type CHO cells (single experiments) was below 4 in each case. Also, the concentration for half-maximal inhibition (IC50) in experiment [2] (mean of n experiments) and in experiment [2] (single experiments) was 50.1 µM each time. For the same compound, the Ki in experiment [2] (mean of n experiments) came to 31.3 µM; in experiment [2] (single experiments), 31 µM.

With `O=c1ccn([C@@H]2O[C@H](COP(=O)(O)OP(=O)(O)O)[C@@H](O)[C@H]2O)c(=O)[nH]1` [UDP], at rat adenine binding GPCR, the calcium transients elicited result is “could not be elicited” and the “agonistic effects on Ca2+ transients” value is “No further agonistic effects”. The antagonistic effect entry on adenine binding GPCR was “did not elicit antagonistic effects”.

Consider `O=c1ccn([C@@H]2O[C@H](COP(=O)(O)OP(=O)(O)OP(=O)(O)O)[C@@H](O)[C@H]2O)c(=O)[nH]1` [UTP], for which the “agonistic effects on Ca2+ transients” value on rat adenine binding GPCR is recorded as “No further agonistic effects”. Moreover, on adenine binding GPCR, the antagonistic effect entry was “did not elicit antagonistic effects”.

Regarding `Cc1ccc(C(=O)Nc2ccc(S(=O)(=O)O)c3cc(S(=O)(=O)O)cc(S(=O)(=O)O)c23)cc1NC(=O)c1cccc(NC(=O)Nc2cccc(C(=O)Nc3cc(C(=O)Nc4ccc(S(=O)(=O)O)c5cc(S(=O)(=O)O)cc(S(=O)(=O)O)c45)ccc3C)c2)c1` [suramin], the “agonistic effects on Ca2+ transients” value on rat adenine binding GPCR is listed as “No further agonistic effects”. For the same compound, the antagonistic effect result on adenine binding GPCR was “did not elicit antagonistic effects”.

For the compound `Cn1c(=O)c2[nH]cnc2n(C)c1=O` [theophylline], the “agonistic effects on Ca2+ transients” value on rat adenine binding GPCR is “No further agonistic effects”. The antagonistic effect entry on adenine binding GPCR is reported as “did not elicit antagonistic effects”.

Consider `O=c1[nH]c(=O)c2[nH]cnc2[nH]1` [xanthine], for which, on rat adenine binding GPCR, the calcium transients elicited result is recorded as “could not be elicited” and the “agonistic effects on Ca2+ transients” value is given as “No further agonistic effects”. Moreover, the antagonistic effect result on adenine binding GPCR is “did not elicit antagonistic effects”.

Consider reactive blue, for which the “agonistic effects on Ca2+ transients” value on rat adenine binding GPCR is “No further agonistic effects”. The antagonistic effect entry on adenine binding GPCR is on record as “did not elicit antagonistic effects”.

These data come from patent US20030157516A1, “G protein coupled receptor” (priority 2000, published 2003).
